17 compounds from ChEMBL document CHEMBL1201862, “PubChem BioAssay data set” (2004) can be followed below.

Activity calls are given as the source filed them.

Assay [1] is described as follows: NIH-3T3 fibroblast cytotoxicity, dose response, cytotoxicity control, cell-based, fluorescence, Alamar Blue, secondary assay (AID 2327).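 Note: NIH-3T3 mouse fibroblasts cultured with fluconazole at 8 µg/mL.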 The class given is functional. (In general: The colour change of resazurin is a common sign of viable cells or microbes.)
A short description of assay [2]: fluconazole-exposed Candida albicans growth modulators – fluorescence, retest, confirmation (AID 2467). The class given is functional, cell-based.
Assay [3] deals with DNA damage-inducible transcript 3 protein (Mus musculus, UniProt P35639). The class given is functional, Cricetulus griseus.
In a further assay the target is X-box-binding protein 1 (Homo sapiens, UniProt P17861). The class given is functional, Cricetulus griseus.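 Note: confirmatory dose-response counter-screen serving a CHOP assay.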
The target in assay [4] is G-protein coupled receptor 55 (Homo sapiens, UniProt Q9Y2T6). Briefly: inhibition of LPI-stimulated GPR55 beta-arrestin translocation – imaging, U2OS, beta-arrestin-GFP, LPI agonist, primary screen (AID 2013).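 Note: antagonist potency measured as reduced agonist-driven arrestin aggregation.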 The class given is functional.
The target of another assay is Protein Rev (Human immunodeficiency virus type 1 group M subtype B (isolate HXB2)(HIV-1), UniProt P04618). Description: blockers of HIV Rev/RRE RNA complex – biochemical, fluorescence polarization, HIV-1, dose response (AID 434976). Set-up: species or system Human immunodeficiency virus 1.
The target of assay [5] is Female germline-specific tumor suppressor gld-1 (Caenorhabditis elegans, UniProt Q17339). Briefly: blockers of GLD-1/TGE RNA complex formation – biochemical, fluorescence polarization, C. elegans, dose response (AID 2802).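 Note: fluorescence polarization of labeled TGE RNA bound by purified gld-1 protein.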 Background: In fluorescence polarisation assays a small probe gives low polarisation when free and higher when bound to something large.
The next assay concerns CHO. Briefly: CHO cell viability loss, potency – luminescence, cytotoxicity control for TLR9-MyD88 binding inhibitor project, dose response (AID 588339).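 Note: CHO cells stably coexpressing TLR9 and MyD88 fusions from primary screen; compound exposure lasted 48 hours before viability readout.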 The class given is functional, cell-based, hamster. To be noted: Cricetulus griseus.
The next assay addresses Beta Lactamase (Pseudomonas aeruginosa, UniProt Q932Y6). Description: BLA reporter interference, concentration series – BLA reporter cells, FRET fluorescence, artefact control for TLR9-MyD88 binding inhibitor project, dose response (AID 588341).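 Note: cell based assay in CHO-K1 cells stably expressing beta-lactamase.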 The class given is cell-based.
For assay [6], the target named is T1, Polyadenylate-binding protein 1 (Homo sapiens, UniProt P11940). Briefly: MLLE binding blockers, Cy5 peptide tracer – biochemical, fluorescence polarization, Cy5-PAM2 peptide, secondary, miRNA deadenylation inhibitor project, dose response (AID 602260). The class given is functional. The conditions noted are these: read-out: IC50_Mean.
Assay [7] has as its target T1, Polyadenylate-binding protein 1. Description: MLLE domain peptide-binding blockers, IC50 – biochemical, fluorescence polarization, FITC-PAM2 peptide, dose response (AID 602259). The class given is functional. The conditions noted are these: read-out: IC50_Mean.
Assay [8] has as its target 1-acylglycerol-3-phosphate O-acyltransferase ABHD5/Perilipin-5 (Homo sapiens, UniProt Q00G26+Q8WTS1). Description: Luminescence-based biochemical high throughput dose response assay for inhibitors of the interaction of the lipase co-activator protein, abhydrolase domain containing 5 (ABHD5) with perilipin-5 (MLDP; PLIN5) (2K validation set). [Related pubchem assays (depositor defined):AID493035, AID493241].

A further assay addresses Perilipin-1/ABHD5 (Homo sapiens, UniProt O60240+Q8WTS1). Briefly: Luminescence-based biochemical high throughput dose response assay for inhibitors of the interaction of the lipase co-activator protein, abhydrolase domain containing 5 (ABHD5) with perilipin-1 (PLIN1) (2K validation set). [Related pubchem assays (depositor defined):AID493027, AID493057].
Assay [9] relates to HEK293. Briefly: inhibition of NOD1-driven NF-kB reporter – cell-based, luminescence, uHTS, primary screen (AID 1578). To be noted: Homo sapiens. The class given is functional.
The subject of assay [10] is HEK293. Briefly: cells. The class given is functional, cell-based. To be noted: Homo sapiens.
The test system of assay [11] is HEK293. Description: cells. The class given is functional, cell-based. The conditions noted are these: Homo sapiens. The source holds these as a separate data set.
Assay [12] deals with Nucleotide-binding oligomerization domain-containing protein 2 (Homo sapiens, UniProt Q9HC29). Briefly: inhibition of NOD2-driven NF-kB reporter – cell-based, luminescence, uHTS, HEK293 (AID 1566). The class given is functional.
Assay [13] concerns HEK293. Briefly: NOD2 signaling inhibitors in MDP-stimulated cells, cell-based, uHTS, luminescence (AID 2001). The conditions noted are these: Homo sapiens. The class given is functional.
Assay [14] concerns HEK293. Description: cells. The class given is functional, cell-based. To be noted: Homo sapiens. The source holds these as a separate data set.
The next assay addresses T2, Coagulation factor XII (Homo sapiens, UniProt P00748).
T2 sequence (P00748 whole entry): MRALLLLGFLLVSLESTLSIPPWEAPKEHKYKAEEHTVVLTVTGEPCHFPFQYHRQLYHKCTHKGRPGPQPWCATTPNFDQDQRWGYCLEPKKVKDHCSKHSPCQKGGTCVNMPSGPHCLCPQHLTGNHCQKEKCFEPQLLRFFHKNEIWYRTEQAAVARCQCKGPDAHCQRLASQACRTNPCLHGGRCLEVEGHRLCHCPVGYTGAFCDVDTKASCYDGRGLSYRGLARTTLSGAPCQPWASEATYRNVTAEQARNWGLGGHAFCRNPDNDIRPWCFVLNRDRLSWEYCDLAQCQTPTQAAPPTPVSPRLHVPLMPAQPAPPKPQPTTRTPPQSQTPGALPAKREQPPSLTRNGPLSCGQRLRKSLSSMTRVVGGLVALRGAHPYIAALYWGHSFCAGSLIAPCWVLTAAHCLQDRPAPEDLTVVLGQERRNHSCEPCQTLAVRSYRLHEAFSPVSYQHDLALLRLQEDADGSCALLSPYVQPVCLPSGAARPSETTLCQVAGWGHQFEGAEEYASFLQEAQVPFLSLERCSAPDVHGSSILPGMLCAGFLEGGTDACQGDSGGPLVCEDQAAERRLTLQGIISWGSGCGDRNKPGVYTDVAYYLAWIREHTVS
Briefly: activated coagulation factor XII inhibitor potency, concentration-effect curve, cell-free (AID 716). The class given is functional.

Assay [15] has as its target T3, Voltage-gated N-type calcium channel alpha-1B subunit/Amyloid beta A4 precursor protein-binding family A member 1 (Homo sapiens, UniProt Q00975+Q02410). The class given is protein assay.
In assay [16] the target is T3, Voltage-gated N-type calcium channel alpha-1B subunit/Amyloid beta A4 precursor protein-binding family A member 1. The class given is protein assay. This is another data set of the same source.
The target of the next assay is Troponin, cardiac muscle (Homo sapiens, UniProt P19429+P45379+P63316). Description: Fluorescence-based biochemical high throughput dose response assay for activators of the calcium sensitivity of cardiac Regulated Thin Filaments (RTF). [Related pubchem assays (depositor defined):AID493008, AID493018, AID504382, AID504383]. The class given is protein-complex assay.

Assay [17] concerns the target Glyceraldehyde-3-phosphate dehydrogenase (Homo sapiens, UniProt P04406).
The target of assay [18] is Alkaline phosphatase, placental type (Homo sapiens, UniProt P05187). Briefly: human placental alkaline phosphatase inhibition – biochemical, luminescence, confirmation (AID 1512). The class given is functional.
Assay [19] addresses T4, Alkaline phosphatase, tissue-nonspecific isozyme (Homo sapiens, UniProt P05186).
T4 sequence (P05186 whole entry): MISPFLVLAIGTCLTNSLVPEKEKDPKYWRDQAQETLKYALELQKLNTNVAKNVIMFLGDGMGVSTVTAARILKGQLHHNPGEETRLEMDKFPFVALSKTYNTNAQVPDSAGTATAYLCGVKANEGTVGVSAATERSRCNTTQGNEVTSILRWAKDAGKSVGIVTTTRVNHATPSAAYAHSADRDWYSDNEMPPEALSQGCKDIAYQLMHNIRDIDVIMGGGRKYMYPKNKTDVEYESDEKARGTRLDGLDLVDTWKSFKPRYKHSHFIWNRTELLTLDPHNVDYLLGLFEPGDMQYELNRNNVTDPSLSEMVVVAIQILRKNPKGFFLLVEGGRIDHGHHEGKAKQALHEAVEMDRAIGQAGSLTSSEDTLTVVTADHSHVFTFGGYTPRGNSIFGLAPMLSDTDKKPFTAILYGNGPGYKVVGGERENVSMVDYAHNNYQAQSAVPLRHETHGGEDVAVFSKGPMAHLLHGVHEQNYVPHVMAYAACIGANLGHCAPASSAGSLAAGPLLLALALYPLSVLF
Briefly: potency against alkaline phosphatase TNAP – biochemical, luminescent, dose response, SAR follow-up (AID 1056).

A further assay addresses Beta-galactosidase (Escherichia coli, UniProt Q8VNN2). Briefly: detection-enzyme interference by beta-gal modulators – biochemical, E. coli enzyme, set 3, artefact control for CCR6 antagonist project, dose response (AID 504712). The class given is functional.
Assay [20] in a line: HEK-293T viability loss after treatment – luminescence, T-cell screen hits, cytotoxicity control for TCR NF-kB inhibitor project, dose response (AID 489026).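 Note: cells exposed to compound about 14 hours before the viability readout.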 The class given is functional, cell-based.

The EC50 is the concentration giving half of the maximal effect. `CCCc1ccc(Oc2c[nH]nc2-c2ccc(O)cc2O)cc1`: the concentration giving a half-maximal response (EC50) in [1] is > 150 µM (inconclusive); in assay [2], > 38 µM (not active). In assay [3], the “Absolute IC50 (CHOP)” value amounted to 10 µM. Further, the “Absolute IC50 (XBP1)” value on X-box-binding protein 1 worked out at 10 µM.
In the case of `S=C(Nc1ccc(Oc2ccccc2)cc1)N(CCCN1CCOCC1)Cc1ccccn1`, in assay [4], the IC50 was 2.71 µM (active).
As to `O=C(CN1C(=O)NC2(CCCCC2)C1=O)Oc1ccc2c(C(F)(F)F)cc(=O)oc2c1`, the IC50 is 65.3 µM (not active) against Protein Rev; 4.07 µM (active) in assay [5]; > 49.7 µM (inactive) in the assay on CHO; 3.48 µM (active) on Beta Lactamase; > 66 µM (inactive) in [6]; 38.3 µM (inactive) in assay [7].
For `COc1ccc(C(=O)/C=C/c2cc(C(=O)O)cc3c2OCOC3)c(O)c1`, the IC50 in [8] is 6.24 µM (active); on Perilipin-1/ABHD5, 4.42 µM (active).
Regarding `O=C(Nc1ccc(Cl)cc1)c1cccc(N2C(=O)C3C4CCC(C4)C3C2=O)c1` (stereo not given), the EC50 with HEK293 [9] is 12 µM (active); in [12], > 20 µM (inactive). Moreover, the IC50 with HEK293 [10] is 15.7 µM (active); in the assay with HEK293 [11] it was > 20 µM (inactive); in the assay with HEK293 [13], 16.7 µM (inactive); in the assay with HEK293 [14], > 20 µM (inactive).
In the case of `COc1ccc(NS(=O)(=O)c2ccc(Cl)s2)cn1`, the IC50 on Protein Rev was 6.3 µM (active); in assay [5], 4.54 µM (active); in [6] it was > 66 µM (inactive); in assay [7], 14.9 µM (active).
Turning to `COC(=O)COc1cccc(-n2cnnn2)c1`, the IC50 on Coagulation factor XII is > 50 µM (inactive).
For the compound `COc1ccc(/C=C/C(=O)NC(=S)Nc2ccc(S(=O)(=O)N=C(N)N)cc2)cc1OC`, the IC50 was 4.65 µM (active) in [15] and > 50 µM (inactive) in assay [16].
For the compound `CCCN1CCc2c(sc(NC(=S)NC(=O)c3ccccc3)c2C#N)C1`, the EC50 on Troponin, cardiac muscle was 3.73 µM (active).
On the same count and under the same terms, in the case of `CCc1ccc2c(COC(=O)CNS(=O)(=O)c3ccc(NC(C)=O)cc3)cc(=O)oc2c1` it was > 71.5 µM (inactive).
As for `O=C(c1cc(-c2ccc(Cl)cc2Cl)n[nH]1)N1CCCCC1`, the IC50 in assay [17] is > 100 µM (not active); in assay [18] it was > 100 µM (inactive); in [19], 2.52 µM (active).
With `CCCCN1C(=O)/C(=N\Nc2ccccc2F)c2ccccc21`, the IC50 in [18] is 78.5 µM (active); in [19], > 100 µM (inactive).
As for `CCCCNS(=O)(=O)c1ccc2nc(-c3cccnc3)cc(C(=O)NC3CCCC3)c2c1`, in assay [3], the “Absolute IC50 (CHOP)” value was 10 µM.
Regarding `COCC/N=c1\scc(-c2ccc3c(c2)NC(=O)CO3)n1/N=C(\C)c1ccc(O)cc1`, the IC50 on Beta-galactosidase was > 66.6 µM (inactive).
As for `COC(=O)c1ccc(COc2ccc(/C=N/Nc3nc(C)cc(O)n3)cc2)cc1`, the IC50 in assay [15] is > 56.8 µM (not active); in assay [16], > 50 µM (inactive).
Consider `C=CCOC(=O)C1=C(C)N=C(C)/C(=C(/O)OCC=C)C1c1ccc(O)cc1` (stereo not given), for which the IC50 on Coagulation factor XII is > 50 µM (inactive).
On to `COC(=O)Cc1nn(-c2nc3ccccc3s2)c(O)c1/C(C)=N/c1ccc(OC)cc1`, for which the EC50 was < 0.31 µM (inactive) in the assay with HEK293 [9] and 0.1 µM (active) in assay [12]. Besides, the IC50 is 1.13 µM (active) with HEK293 [10]; > 20 µM (inactive) in the assay with HEK293 [11]; 0.103 µM (active) in the assay with HEK293 [13]; > 20 µM (inactive) with HEK293 [14]; > 80 µM (inactive) in assay [20].
